# According to ChEMBL document CHEMBL1201862, “PubChem BioAssay data set” (2004):
#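 The compound was tested at five concentrations on cells cultured in 96-well plates, with a 48-hour exposure period. GI50: concentration for 50% inhibition of growth.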 The source made the active and inactive calls. No stated cut-off is given here; in the data, active = GI50 up to about 1.1 µM and inactive = higher.
# Tests used:
# Assay in all cases: inhibition of tumour cell growth, NCI panel, 48 h
# [1] = test system: 786-0
# [2] = test system: A498
# [3] = test system: A549
# [4] = test system: ACHN
# [5] = test system: CAKI-1
# [6] = test system: CCRF-CEM
# [7] = test system: COLO 205
# [8] = test system: DLD-1
# [9] = test system: DMS-114
# [10] = test system: DMS-273
# [11] = test system: EKVX
# [12] = test system: HCC 2998
# [13] = test system: HCT-116
# [14] = test system: HCT-15
# [15] = test system: HL-60
# [16] = test system: HOP-62
# [17] = test system: IGROV-1
# [18] = test system: K562
# [19] = test system: KM-20L2
# [20] = test system: KM12
# [21] = test system: LOX IMVI
# [22] = test system: LXFL 529
# [23] = test system: M14
# [24] = test system: M19-MEL
# [25] = test system: MOLT-4
# [26] = test system: NCI-H23
# [27] = test system: NCI-H460
# [28] = test system: NCI-H522
# [29] = test system: OVCAR-3
# [30] = test system: OVCAR-4
# [31] = test system: OVCAR-8
# [32] = test system: RPMI-8226
# [33] = test system: RXF 393
# [34] = test system: SF-268
# [35] = test system: SF-295
# [36] = test system: SK-MEL-28
# [37] = test system: SK-MEL-2
# [38] = test system: SK-MEL-5
# [39] = test system: SK-OV-3
# [40] = test system: SN12C
# [41] = test system: SNB-19
# [42] = test system: SNB-75
# [43] = test system: SNB-78
# [44] = test system: SR
# [45] = test system: SW-620
# [46] = test system: TK-10
# [47] = test system: U-251
# [48] = test system: UACC-257
# [49] = test system: UACC-62
# [50] = test system: UO-31
# [51] = test system: XF498
# [52] = test system: BT-549
# [53] = test system: DU-145
# [54] = test system: HOP-92
# [55] = test system: HT-29
# [56] = test system: Hs-578T
# [57] = test system: MCF7
# [58] = test system: MDA-MB-231
# [59] = test system: MDA-MB-435
# [60] = test system: MDA-N
# [61] = test system: Malme-3M
# [62] = test system: NCI-H226
# [63] = test system: NCI/ADR-RES
# [64] = test system: OVCAR-5
# [65] = test system: PC-3
# [66] = test system: SF-539
# [67] = test system: T47D
smiles,measurement,setting,value
CC1(C)CCOC(Sc2ccccc2)C1 (stereo not given),GI50,[1],> 100 µM (inactive)
same,GI50,[2],67.3 µM (inactive)
same,GI50,[3],24.3 µM (inactive)
same,GI50,[4],63.7 µM (inactive)
same,GI50,[5],96.8 µM (inactive)
same,GI50,[6],32.4 µM (inactive)
same,GI50,[7],52.2 µM (inactive)
same,GI50,[8],> 100 µM (inactive)
same,GI50,[9],21.3 µM (inactive)
same,GI50,[10],28.2 µM (inactive)
same,GI50,[11],> 100 µM (inactive)
same,GI50,[12],> 100 µM (inactive)
same,GI50,[13],60.4 µM (inactive)
same,GI50,[14],50.6 µM
same,GI50,[15],10.5 µM (inactive)
same,GI50,[16],> 100 µM (inactive)
same,GI50,[17],> 100 µM (inactive)
same,GI50,[18],21.9 µM (inactive)
same,GI50,[19],47.4 µM (inactive)
same,GI50,[20],76.6 µM (inactive)
same,GI50,[21],91.4 µM (inactive)
same,GI50,[22],> 100 µM (inactive)
same,GI50,[23],53.2 µM (inactive)
same,GI50,[24],30.3 µM (inactive)
same,GI50,[25],23.2 µM (inactive)
same,GI50,[26],10.8 µM (inactive)
same,GI50,[27],84.9 µM (inactive)
same,GI50,[28],18.8 µM (inactive)
same,GI50,[29],87.1 µM (inactive)
same,GI50,[30],52.8 µM (inactive)
same,GI50,[31],> 100 µM (inactive)
same,GI50,[32],18.3 µM (inactive)
same,GI50,[33],32.1 µM (inactive)
same,GI50,[34],> 100 µM (inactive)
same,GI50,[35],66.2 µM (inactive)
same,GI50,[36],> 100 µM (inactive)
same,GI50,[37],30.3 µM (inactive)
same,GI50,[38],15 µM (inactive)
same,GI50,[39],> 100 µM (inactive)
same,GI50,[40],> 100 µM (inactive)
same,GI50,[41],> 100 µM (inactive)
same,GI50,[42],53.2 µM (inactive)
same,GI50,[43],> 100 µM (inactive)
same,GI50,[44],39.6 µM (inactive)
same,GI50,[45],> 100 µM (inactive)
same,GI50,[46],> 100 µM (inactive)
same,GI50,[47],18.7 µM (inactive)
same,GI50,[48],35.2 µM (inactive)
same,GI50,[49],38.5 µM (inactive)
same,GI50,[50],80.9 µM (inactive)
same,GI50,[51],> 100 µM (inactive)
Nc1nc(Cl)c(N)c(NCC2(CO)CCC2)n1,GI50,[1],> 100 µM (inactive)
same,GI50,[2],> 100 µM (inactive)
same,GI50,[3],> 100 µM (inactive)
same,GI50,[4],> 100 µM (inactive)
same,GI50,[52],> 100 µM (inactive)
same,GI50,[5],> 100 µM (inactive)
same,GI50,[6],> 100 µM (inactive)
same,GI50,[7],> 100 µM (inactive)
same,GI50,[53],> 100 µM (inactive)
same,GI50,[11],> 100 µM (inactive)
same,GI50,[12],> 100 µM (inactive)
same,GI50,[13],> 100 µM (inactive)
same,GI50,[14],> 100 µM
same,GI50,[15],> 100 µM (inactive)
same,GI50,[16],> 100 µM (inactive)
same,GI50,[54],76 µM (inactive)
same,GI50,[55],> 100 µM (inactive)
same,GI50,[56],> 100 µM (inactive)
same,GI50,[17],> 100 µM (inactive)
same,GI50,[18],> 100 µM (inactive)
same,GI50,[20],> 100 µM (inactive)
same,GI50,[21],> 100 µM (inactive)
same,GI50,[23],> 100 µM (inactive)
same,GI50,[57],> 100 µM (inactive)
same,GI50,[58],> 100 µM (inactive)
same,GI50,[59],> 100 µM (inactive)
same,GI50,[60],> 100 µM (inactive)
same,GI50,[25],> 100 µM (inactive)
same,GI50,[61],> 100 µM (inactive)
same,GI50,[62],> 100 µM (inactive)
same,GI50,[26],94.2 µM (inactive)
same,GI50,[27],> 100 µM (inactive)
same,GI50,[28],69.7 µM (inactive)
same,GI50,[63],> 100 µM (inactive)
same,GI50,[29],> 100 µM (inactive)
same,GI50,[30],> 100 µM (inactive)
same,GI50,[64],> 100 µM (inactive)
same,GI50,[31],> 100 µM (inactive)
same,GI50,[65],> 100 µM (inactive)
same,GI50,[32],> 100 µM (inactive)
same,GI50,[33],> 100 µM (inactive)
same,GI50,[34],> 100 µM (inactive)
same,GI50,[35],> 100 µM (inactive)
same,GI50,[66],> 100 µM (inactive)
same,GI50,[36],> 100 µM (inactive)
same,GI50,[37],> 100 µM (inactive)
same,GI50,[38],75.9 µM (inactive)
same,GI50,[39],> 100 µM (inactive)
same,GI50,[40],> 100 µM (inactive)
same,GI50,[41],> 100 µM (inactive)
same,GI50,[42],> 100 µM (inactive)
same,GI50,[44],> 100 µM (inactive)
same,GI50,[45],> 100 µM (inactive)
same,GI50,[67],91.8 µM (inactive)
same,GI50,[46],> 100 µM (inactive)
same,GI50,[47],> 100 µM (inactive)
same,GI50,[48],> 100 µM (inactive)
same,GI50,[49],> 100 µM (inactive)
same,GI50,[50],> 100 µM (inactive)
